Measurements as given in the supplement of paper PMC10307832.

Tests used:
Experiment in all cases: relative viability (nuclei count vs DMSO), 5 days (fraction); higher = more cells survive
[1] = compound: O=C(O)c1ccc2c(c1)nc(Nc1cccc(Cl)c1)c1ccncc12 [Silmitasertib] + CC1(C)CCC(c2ccc(Cl)cc2)=C(CN2CCN(c3ccc(C(=O)NS(=O)(=O)c4ccc(N[C@H](CCN5CCOCC5)CSc5ccccc5)c(S(=O)(=O)C(F)(F)F)c4)cc3)CC2)C1 [Navitoclax] (partner 0.5 µM)
Summary of the method: (§1)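 After 5 days of treatment, lung cancer cells in 1536-well plates were fixed and stained in a single step (final 0.05% Triton X-100, 1% formaldehyde, 1 ug/ml Hoechst) and their nuclei counted on 4× images. Treatment had been applied by pin tool the day after seeding as one drug alone or as a fixed anchor-drug dose with five library-drug doses (not always all listed) in √10 steps. Relative viability is the nuclei count of treated wells divided by that of vehicle wells, and values are medians of duplicate plates.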

[2] = compound: O=C(O)c1ccc2c(c1)nc(Nc1cccc(Cl)c1)c1ccncc12 [Silmitasertib] + COc1cc2c(Oc3ccc(NC(=O)C4(C(=O)Nc5ccc(F)cc5)CC4)cc3F)ccnc2cc1OCCCN1CCOCC1 [Foretinib] (partner 0.25 µM)
Summary of the method: as §1

[3] = compound: O=C(O)c1ccc2c(c1)nc(Nc1cccc(Cl)c1)c1ccncc12 [Silmitasertib] + Cc1nc(Nc2ncc(C(=O)Nc3c(C)cccc3Cl)s2)cc(N2CCN(CCO)CC2)n1 [Dasatinib] (partner 0.075 µM)
Summary of the method: as §1

[4] = compound: O=C(O)c1ccc2c(c1)nc(Nc1cccc(Cl)c1)c1ccncc12 [Silmitasertib] + Nc1ncn([C@H]2C[C@H](O)[C@@H](CO)O2)c(=O)n1 [Decitabine] (partner 2 µM)
Summary of the method: as §1

[5] = compound: O=C(O)c1ccc2c(c1)nc(Nc1cccc(Cl)c1)c1ccncc12 [Silmitasertib] + O=C(c1cc(Cc2n[nH]c(=O)c3ccccc23)ccc1F)N1CCN(C(=O)C2CC2)CC1 [Olaparib] (partner 8 µM)
Summary of the method: as §1

Cell Line | relative viability ([1]; first compound 0.04 µM) | relative viability ([1]; first compound 0.4 µM) | relative viability ([1]; first compound 1.265 µM) | relative viability ([1]; first compound 4 µM) | relative viability ([2]; first compound 0.04 µM) | relative viability ([2]; first compound 0.4 µM) | relative viability ([2]; first compound 1.265 µM) | relative viability ([2]; first compound 4 µM) | relative viability ([3]; first compound 0.04 µM) | relative viability ([3]; first compound 0.4 µM) | relative viability ([3]; first compound 1.265 µM) | relative viability ([3]; first compound 4 µM) | relative viability ([4]; first compound 0.04 µM) | relative viability ([4]; first compound 0.4 µM) | relative viability ([4]; first compound 1.265 µM) | relative viability ([4]; first compound 4 µM) | relative viability ([5]; first compound 0.04 µM) | relative viability ([5]; first compound 0.4 µM) | relative viability ([5]; first compound 1.265 µM) | relative viability ([5]; first compound 4 µM)
NCI-H460 | 1.26 | 1.2 | 1.3 | 1.04 | 1.04 | 0.961 | 1.07 | 1.15 | 0.56 | 0.445 | 0.44 | 0.448 | 0.551 | 0.511 | 0.478 | 0.363 | 0.387 | 0.269 | 0.553 | 0.575
NCI-H1993 | 1.07 | 0.933 | 0.631 | 0.749 | 0.817 | 0.652 | 0.651 | 0.65 | 0.652 | 0.502 | 0.52 | 0.586 | 0.544 | 0.494 | 0.552 | 0.514 | 1.24 | 0.804 | 0.96 | 0.831
ChaGo-K-1 | 1.45 | 0.917 | 0.84 | 0.574 | 0.99 | 0.731 | 0.876 | 0.971 | 0.586 | 0.464 | 0.566 | 0.463 | 0.526 | 0.486 | 0.463 | 0.509 | 0.421 | 0.288 | 0.376 | 0.399
HCC-15 | 0.745 | 0.556 | 0.548 | 0.438 | 1.03 | 0.86 | 0.772 | 0.761 | 0.669 | 0.53 | 0.396 | 0.32 | 0.703 | 0.536 | 0.404 | 0.292 | 0.777 | 0.508 | 0.595 | 0.39
NCI-H23 | 0.957 |  | 0.732 | 0.728 | 0.97 |  | 0.65 | 0.735 | 0.793 |  | 0.652 | 0.581 | 0.353 | 0.256 | 0.255 | 0.245 | 0.351 | 0.217 | 0.272 | 0.251
NCI-H1395 | 1.2 | 0.816 | 1.1 | 0.947 | 0.894 | 0.805 | 0.97 | 0.972 | 0.471 | 0.387 | 0.431 | 0.414 | 0.756 | 0.725 | 0.684 | 0.683 | 0.463 | 0.461 | 0.459 | 0.469
NCI-H1666 | 1.02 | 0.853 | 0.663 | 0.492 | 0.954 | 0.964 | 0.693 | 0.6 | 0.837 | 0.664 | 0.623 | 0.615 | 0.804 | 0.67 | 0.498 | 0.656 | 0.713 | 0.577 | 0.566 | 0.61
NCI-H2405 | 1.26 | 0.68 | 0.596 | 0.706 | 1.02 | 0.887 | 0.967 | 0.964 | 0.221 | 0.209 | 0.222 | 0.236 | 0.779 | 0.735 | 0.716 | 0.794 | 0.896 | 0.717 | 0.851 | 0.756
